From ChEMBL document CHEMBL1157539, “Thousands of chemical starting points for antimalarial lead identification” (Nature, 2010)

Test system: Plasmodium falciparum
Assay: GSK_TCMDC: Inhibition of Plasmodium falciparum 3D7 in whole erythrocytes, using parasite LDH activity as an index of growth.
Assay type: functional, organism-based
Details: Plasmodium falciparum, 3D7

| Compound | XC50 [nM] |
| --- | --- |
| CN(C)CCCOc1ccc(CN2CC[C@H](NC(=O)c3ccc(Cl)c(Cl)c3)C2)cc1Cl | 957 |
| Cc1cc(CNCCCCCCCNCc2cccc([N+](=O)[O-])c2)ccc1O | 637 |
| COC(=O)Nc1nc2cc3c(cc2s1)OCCO3 | 841 |
| CCCC(=O)NC(NC(=S)Nc1ccc([N+](=O)[O-])cc1)C(Cl)(Cl)Cl (stereo unspecified) | 1030 |
| Clc1cc(Nc2ccnc3ccc(Br)cc23)ccc1Oc1ccc2ccccc2c1Cl | 725 |
| O=C(Nc1cccc(CN2CCN(C(=O)c3cccc(Cl)c3)CC2)c1)c1cccs1 | 184 |
| O=C(Nc1ccc(Cn2ncc(N3CCCNCC3)c(Cl)c2=O)cc1)Nc1cc(Cl)cc(Cl)c1 | 866 |
| COc1ccc([N+](=O)[O-])cc1N(Cc1ccccc1-c1ccccc1)S(=O)(=O)c1ccc(C(F)(F)F)cc1 | 784 |
| O=[N+]([O-])c1ccc2nc(Nc3cccc(C(F)(F)F)c3)c(Nc3cccc(C(F)(F)F)c3)nc2c1 | 483 |
| CC1(C)C(=O)Nc2ccccc2N1C(=O)CN1CCN(c2ccccc2O)CC1 | 1070 |
| CCN(CC)CCON=Cc1cc(C)c2[nH]c3ccc(OCc4ccccc4)cc3c2c1C | 972 |
| CCCCC([C@@H](Cc1ccc2ccccc2c1)C(=O)N[C@H](C(=O)NC)C(C)(C)C)N(O)C=O (stereo partly specified) | 142 |
| CNC(=O)c1cnc(Nc2ccc(N3CCN(C)CC3)cc2)nc1Nc1cccc(OC(C)C)c1 | 147 |
| COc1ccc2nccc(N3CCC(NCc4ccc5c(n4)NC(=O)CS5)CC3)c2n1 | 860 |
| CCOC(=O)C(NC(=O)c1ccc([N+](=O)[O-])o1)C(C)C (stereo unspecified) | 1060 |
| Cn1c(N)c(C(=O)CSc2ncc(-c3ccc(F)cc3)n2Cc2ccccc2)c(=O)n(C)c1=O | 569 |
| CC(=O)Nc1nc(C(=O)Nc2cccc(-c3ccc(-c4nc5ccccc5[nH]4)cc3)c2)cs1 | 421 |
| CCOC(=O)c1ccc(NC(=O)Nc2cccc(-c3ccc(-c4nc5cccc(C)c5[nH]4)s3)c2)cc1 | 144 |
| COc1ccc(C(C)Nc2nc(N)c3cc(OC)c(OC)cc3n2)cc1 (stereo unspecified) | 936 |
| Cc1ccc(/C=C/C(=O)NCCCCCN2CCCN(C(=O)Nc3ccc(Cl)c(Cl)c3)CC2)cc1 | 942 |
| CN(C)c1cccc(NC(=O)NC2N=C(c3ccccc3)c3ccccc3N(CC(=O)N(C)c3ccccc3)C2=O)c1 (stereo unspecified) | 947 |
| Cc1ccc(NC(=O)c2ccc3ncccc3c2)cc1OC1CCN(Cc2ccsc2)C1 (stereo unspecified) | 802 |
| O=C(/C=C/C=C/c1ccc(Cl)c(Cl)c1)NCCCCCN1CCCC2CCCCC21 (stereo unspecified) | 954 |
| Cc1cc(CNCCCCCCNCc2cccc([N+](=O)[O-])c2)ccc1O | 723 |

| Compound | XC50 [nM] |
| --- | --- |
| COc1ccc(-c2cc(-c3ccc(S(C)(=O)=O)cc3)cnc2N)cn1 | 187 |
| Cc1cc2[nH]c(-c3ccc(C(=O)NCCCN4CCN(c5cccc(Cl)c5)CC4)cc3)nc2cc1Cl | 769 |
| Cc1cc(NC(=O)c2cccs2)ccc1OC1CCN(Cc2ccc(F)cc2)C1 (stereo unspecified) | 669 |
| Cc1cccc2nc(-c3ccc(-c4cccc(CNCCCN5CCCC5=O)c4)cc3)[nH]c12 | 840 |
| CC(Cc1ccc(OCC(=O)NCC2CCN(CCc3cccc(Cl)c3)CC2)cc1)NCCc1cccc(Cl)c1 (stereo unspecified) | 663 |
| Cc1cccc(CNc2nc(C)cc(N[C@@H](CC(C)C)C(=O)NCc3cccc(F)c3)n2)c1 | 1180 |
| CN(C)C(CNC(=O)c1cc(-c2ccncc2)c(-c2ccc(NC(=O)Nc3cccc(F)c3)cc2)o1)c1ccccc1 (stereo unspecified) | 772 |
| COc1ccc(C2=CCN(c3ccc(Cl)c(Cl)c3)C2=O)cc1OCCN1CCCCC1 | 784 |
| CN1CCN(c2ccc(CNc3ccc4ncc(-c5ccc(OC(F)(F)F)cc5)n4n3)cc2)CC1 | 834 |
| Oc1cccc(-c2nc(-c3ccccc3)c(-c3ccc4oc5ccc(-c6[nH]c(-c7cccc(O)c7)nc6-c6ccccc6)cc5c4c3)[nH]2)c1 | 795 |
| CCS(=O)(=O)c1ccc(OC)c(Nc2nccc(-c3c(-c4cccc(NC(=O)c5c(F)cccc5F)c4)nn4ncccc34)n2)c1 | 1030 |
| CC(C)(C)NS(=O)(=O)c1cc(C(=O)N2CCC(CCN3CCC(O)(c4cccc(C(F)(F)F)c4)CC3)(c3cccc(F)c3)CC2)c(Cl)cc1F | 858 |
| COc1c(CNCCCCCCNCc2cc(Cl)c3ccccc3c2OC)cc(Cl)c2ccccc12 | 937 |
| COc1cccc(CCNc2nc(NCc3ccccc3)c3cc(OC)c(OC)cc3n2)c1 | 321 |
| CC(C)CSc1cc(C(=O)Nc2cc(Cl)ccc2O)ccn1 | 670 |
| CCCC(=O)Nc1ccc(OCCCN(Cc2ccccc2OC(F)(F)F)c2ccc(C#N)c(C(F)(F)F)c2)cc1 | 600 |
| Cc1cc(C)c2c(c1)C(=NO)CCN2 | 945 |
| COc1cc(F)c2ncc(Cl)c(C(O)CN3CCC(NC(=O)c4ccc5c(n4)NC(=O)CO5)CC3)c2c1 (stereo unspecified) | 754 |
| COc1ccc2nc(-c3cc(-c4ccc(NC(C)=O)cc4)cnc3N)[nH]c2c1 | 1240 |
| O=c1cc(NCCCNCc2sc(Br)nc2Br)[nH]c2ccccc12 | 866 |
| COc1ccc(F)cc1-c1ccc(C(=O)N2CCCN(c3ccc(C(F)(F)F)cn3)CC2)cc1 | 157 |
| CCOC(=O)c1cnc2c(OC)cc(OC)c(Cl)c2c1Nc1cccc(C)c1 | 844 |
| Cc1cc(N[C@@H](CC(C)C)C(=O)NCc2cccc(F)c2)nc(Nc2ccccc2)n1 | 1090 |
| Cc1ccc(CNc2ccc3ncc(-c4cccc(C(=O)NCCN(C)C)c4)n3n2)c(C)c1 | 588 |

| Compound | XC50 [nM] |
| --- | --- |
| COc1ccc(N2CCN(CCCCNC(=O)c3ccc(/C=C/c4ccc(Cl)c(Cl)c4)cc3)CC2)c(OC)c1 | 709 |
| CN(CCCc1c[nH]c2ccccc12)CCC1CCC(NC(=O)/C=C/c2ccc(Cl)c(Cl)c2)CC1 (stereo unspecified) | 650 |
| Nc1nc(NCC2CCC(CNS(=O)(=O)c3cccc4ccccc34)CC2)nc2ccccc12 (stereo unspecified) | 804 |
| CCCCCCN1CCC(NCc2cccc3ccccc23)CC1 | 811 |
| CC1(C)CN(CCC2CCC(NC(=O)/C=C/c3ccccc3F)CC2)Cc2ccc(C#N)cc21 (stereo unspecified) | 1110 |
| COc1cc(OC)c(NC(=O)COc2ccc(C)cc2)cc1Cl | 688 |
| CN(Cc1ccc(C#N)cc1)C1CCN(c2cc(NC(=O)c3cccc(F)c3)ccn2)CC1 | 1750 |
| c1ccc2c(c1)cc(CNCCCN1CCN(CCCNCc3cc4ccccc4c4ccccc34)CC1)c1ccccc12 | 204 |
| CO/C(=C\C=C\c1cc2cc(Cl)c(Cl)cc2[nH]1)C(=O)NCCCN1CCN(c2ccncc2)CC1 | 733 |
| CC(=O)Nc1ccc(CN2CCN(C(c3ccc(F)cc3)c3ccc(F)cc3)CC2)cc1 | 831 |
| Cc1ccc(S(=O)(=O)N(C)c2ccccc2C(=O)Nc2ccccc2Oc2ccccc2)cc1 | 919 |
| O=S(=O)(NC1CCCCN(Cc2ccccc2O)C1)c1ccc(C(F)(F)F)cc1 (stereo unspecified) | 1300 |
| O=C(NC1CCN(Cc2ccccc2)CC1)c1ccc(-c2nc3cc(F)c(F)cc3[nH]2)s1 | 835 |
| COc1cc2nc(NCCc3ccccc3)nc(NCc3cc(C)no3)c2cc1OC | 239 |
| CN(c1ccc(NC(=O)Nc2cc(C(C)(C)C)on2)cc1)c1ccnc(NCCOC(=O)Nc2cc(C(C)(C)C)on2)n1 | 752 |
| Cc1ccc(CON2C(N)=NC(N)=NC23CCCCC3)c2ccccc12 | 72.6 |
| CCOc1cc(Cc2cnc(N)nc2N)ccc1OC | 1250 |
| CN(CCC(CCN1CCC(c2c[nH]c3ccccc23)CC1)c1ccccc1)C(=O)Nc1ccc(Cl)c(Cl)c1 (stereo unspecified) | 1190 |
| O=c1cc(NCCCNCc2cccc(OC(F)(F)C(F)F)c2)[nH]c2ccccc12 | 1270 |
| Clc1ccc2c(NCc3ccc4c(c3)OCO4)ccnc2c1 | 266 |
| N#Cc1ccc(N2CCN(Cc3ccc(-c4cccc(-c5nc6ccccc6[nH]5)c4)cc3)CC2)nc1 | 908 |
| Cc1[nH]c(C)c(-c2ccc(OCc3ccc(OC(F)(F)F)cc3)nc2)c(=O)c1Cl | 70.5 |
| CC(CN(C)C)C(=O)Nc1cccc(-c2cccc(-c3nc4cc(F)ccc4[nH]3)c2)c1 (stereo unspecified) | 826 |
| Cc1cccc(S(=O)(=O)Nc2cccc(CCN3CCC(N4CCCCC4)CC3)c2)c1 | 1330 |

| Compound | XC50 [nM] |
| --- | --- |
| CC(=O)Nc1ccc(S(=O)(=O)Nc2ccc(Nc3nc(C)cc(N4CCCCC4)n3)cc2)cc1 | 779 |
| Fc1cc(Cl)ccc1Nc1ccnc2cc(-c3ccc(CNCCN4CCOCC4)o3)ccc12 | 277 |
| c1ccc(CCNc2ccnc(Nc3ccc4[nH]nnc4c3)n2)cc1 | 863 |
| CCc1ccc(NC(=O)c2ccc(CN3CCCN(CC4CCCCC4)CC3)cc2)cc1 | 711 |
| Cc1cccc2nc(-c3ccc(-c4ccc(CNCc5ccc(CN)cc5)cc4)s3)[nH]c12 | 442 |
| CC(=O)Nc1ccc(CCNC(C)Cc2ccc(C(=O)Nc3ccc(CC(C)NCCc4cccc(Cl)c4)cc3)cc2)cc1 (stereo unspecified) | 330 |
| CCN1CCN(Cc2ccc(-c3ccc(NS(=O)(=O)c4cccc5cccnc45)cc3)cc2)CC1 | 922 |
| S=c1nc(-c2ccccc2)n2ccsc2n1 | 176 |
| COc1cccc(CN2CCC(C(=O)Nc3ccc(-c4nc5ccccc5[nH]4)cc3)CC2)c1 | 627 |
| COc1cccc(CNC(=O)[C@H]2CNCCN2C(=O)CCCc2ccccc2)c1 | 787 |
| Nc1ncc(-c2ccc(S(=O)(=O)Nc3ccc(C(=O)N[C@@H](CCC(=O)O)C(=O)O)cc3)cc2)c(=O)[nH]1 | 803 |
| COc1ccc(-c2cc(C(=O)Nc3ccc4[nH]c(-c5ccccc5)nc4c3)[nH]n2)cc1 | 696 |
| Cc1cc(=NN=Cc2cccc(Cl)c2)c2ccccc2[nH]1 | 255 |
| CC(C)NCc1ccc(-c2cccc(NC(=O)c3ccc(C#N)cc3)c2)cc1 | 740 |
| CCCCCN1CCN(Cc2cccc(NC(=O)c3ccc(Cl)c(Cl)c3)c2)CC1 | 857 |
| O=C(Nc1cc(C(F)(F)F)cc(C(F)(F)F)c1)N1CCC(CCN2CCC(c3c[nH]c4ccccc34)CC2)CC1 | 1260 |
| Cc1cccc2nc(-c3ccc(-c4cccc(CNCCCNS(C)(=O)=O)c4)s3)[nH]c12 | 1020 |
| CCCc1cc(N2CCC(c3ccccc3)(N3CCCCC3)CC2)nc(Nc2ccc(OC)cc2)n1 | 1090 |
| CS(=O)(=O)Nc1ccc2c(C3CCN(CCC4CCN(C(=O)/C=C/c5ccc(Cl)c(Cl)c5)CC4)CC3)c[nH]c2c1 | 599 |
| FC(F)(F)c1ccc2[nH]c(-c3ccc(-c4cccc(CN5CCCCC5)c4)cc3)nc2c1 | 144 |
| Nc1ncc(-c2ccc3nccc(-c4ccncc4)c3c2)cc1S(=O)(=O)N1CCOCC1 | 872 |
| N#CCCN1CCN(Cc2cccc(-c3ccc(-c4nc5ccccc5[nH]4)s3)c2)CC1 | 759 |
| Cc1cc(Nc2ccc(Cl)cc2)n2nc(C(F)(F)F)nc2n1 | 117 |
| COC(=O)c1ccc(CC(C)NCC(O)c2cccc3ccccc23)cc1 (stereo unspecified) | 935 |
